Experimental data from the NIST ThermoML archive (doi:10.1016/j.tca.2014.07.022).

Experiment: xn = mol fraction of the nth substance listed
Conditions: 100 kPa, Liquid; for viscosity: Concentric cylinders viscometry; for mass density: Vibrating tube method

CCCC(C)O (stereo not drawn) [pentan-2-ol] + CC(=O)CC(C)C
Conditions	mass density [kg/m3]	viscosity [mPa·s]
293.15 K, x2 = 0	809.3	3.974
293.15 K, x2 = 0.0812	807.6	2.699
293.15 K, x2 = 0.1588	806.2	2.09
293.15 K, x2 = 0.2391	804.9	1.709
293.15 K, x2 = 0.3508	803.3	1.366
293.15 K, x2 = 0.4441	802.4	1.14
293.15 K, x2 = 0.561	801.4	0.924
293.15 K, x2 = 0.6484	800.9	0.818
293.15 K, x2 = 0.741	800.7	0.74
293.15 K, x2 = 0.8528	800.5	0.671
293.15 K, x2 = 0.9406	800.7	0.63
298.15 K, x2 = 0	805.3	3.277
298.15 K, x2 = 0.0812	803.5	2.326
298.15 K, x2 = 0.1588	801.9	1.83
298.15 K, x2 = 0.2391	800.6	1.496
298.15 K, x2 = 0.3508	799	1.202
298.15 K, x2 = 0.4441	797.9	1.018
298.15 K, x2 = 0.561	796.9	0.85
298.15 K, x2 = 0.6484	796.4	0.767
298.15 K, x2 = 0.741	796	0.69
298.15 K, x2 = 0.8528	795.9	0.63
298.15 K, x2 = 0.9406	795.9	0.59
303.15 K, x2 = 0	801.2	2.717
303.15 K, x2 = 0.0812	799.3	2.029
303.15 K, x2 = 0.1588	797.7	1.619
303.15 K, x2 = 0.2391	796.3	1.333
303.15 K, x2 = 0.3508	794.6	1.078
303.15 K, x2 = 0.4441	793.5	0.928
303.15 K, x2 = 0.561	792.4	0.787
303.15 K, x2 = 0.6484	791.9	0.711
303.15 K, x2 = 0.741	791.5	0.641
303.15 K, x2 = 0.8528	791.3	0.589
303.15 K, x2 = 0.9406	791.4	0.553
308.15 K, x2 = 0	797	2.282
308.15 K, x2 = 0.0812	795	1.757
308.15 K, x2 = 0.1588	793.4	1.429
308.15 K, x2 = 0.2391	791.9	1.185
308.15 K, x2 = 0.3508	790.1	0.966
308.15 K, x2 = 0.4441	788.9	0.842
308.15 K, x2 = 0.561	787.8	0.728
308.15 K, x2 = 0.6484	787.2	0.663
308.15 K, x2 = 0.741	786.8	0.6
308.15 K, x2 = 0.8528	786.6	0.554
308.15 K, x2 = 0.9406	786.7	0.526
313.15 K, x2 = 0	792.7	1.931
313.15 K, x2 = 0.0812	790.6	1.52
313.15 K, x2 = 0.1588	788.9	1.249
313.15 K, x2 = 0.2391	787.4	1.051
313.15 K, x2 = 0.3508	785.6	0.876
313.15 K, x2 = 0.4441	784.3	0.773
313.15 K, x2 = 0.561	783.2	0.675
313.15 K, x2 = 0.6484	782.6	0.617
313.15 K, x2 = 0.741	782.2	0.561
313.15 K, x2 = 0.8528	782	0.522
313.15 K, x2 = 0.9406	782.1	0.497
318.15 K, x2 = 0	788.4	1.647
318.15 K, x2 = 0.0812	786.3	1.329
318.15 K, x2 = 0.1588	784.5	1.116
318.15 K, x2 = 0.2391	782.9	0.949
318.15 K, x2 = 0.3508	781	0.8
318.15 K, x2 = 0.4441	779.8	0.712
318.15 K, x2 = 0.561	778.6	0.627
318.15 K, x2 = 0.6484	778	0.577
318.15 K, x2 = 0.741	777.6	0.53
318.15 K, x2 = 0.8528	777.3	0.492
318.15 K, x2 = 0.9406	777.4	0.465
323.15 K, x2 = 0	784	1.419
323.15 K, x2 = 0.0812	781.9	1.168
323.15 K, x2 = 0.1588	780	0.995
323.15 K, x2 = 0.2391	778.4	0.855
323.15 K, x2 = 0.3508	776.5	0.729
323.15 K, x2 = 0.4441	775.2	0.654
323.15 K, x2 = 0.561	774	0.583
323.15 K, x2 = 0.6484	773.4	0.543
323.15 K, x2 = 0.741	772.9	0.505
323.15 K, x2 = 0.8528	772.7	0.468
323.15 K, x2 = 0.9406	772.8	0.445

CC(=O)CC(C)C [4-methylpentan-2-one] + CC(C)O
Conditions	mass density [kg/m3]	viscosity [mPa·s]
293.15 K, x1 = 0.067	786.4	1.722
293.15 K, x1 = 0.1344	787.5	1.361
293.15 K, x1 = 0.2044	788.6	1.141
293.15 K, x1 = 0.3035	790.2	0.962
293.15 K, x1 = 0.3848	791.4	0.856
293.15 K, x1 = 0.5098	793.4	0.737
293.15 K, x1 = 0.5987	794.7	0.691
293.15 K, x1 = 0.6986	796.3	0.651
293.15 K, x1 = 0.8138	798	0.619
293.15 K, x1 = 0.9278	799.8	0.605
293.15 K, x1 = 1	800.8	0.588
298.15 K, x1 = 0.067	782.1	1.516
298.15 K, x1 = 0.1344	783.1	1.217
298.15 K, x1 = 0.2044	784.1	1.029
298.15 K, x1 = 0.3035	785.6	0.877
298.15 K, x1 = 0.3848	786.8	0.784
298.15 K, x1 = 0.5098	788.6	0.684
298.15 K, x1 = 0.5987	790	0.64
298.15 K, x1 = 0.6986	791.5	0.608
298.15 K, x1 = 0.8138	793.2	0.581
298.15 K, x1 = 0.9278	795	0.568
298.15 K, x1 = 1	796.1	0.554
303.15 K, x1 = 0.067	777.7	1.346
303.15 K, x1 = 0.1344	778.6	1.09
303.15 K, x1 = 0.2044	779.6	0.932
303.15 K, x1 = 0.3035	781	0.8
303.15 K, x1 = 0.3848	782.2	0.725
303.15 K, x1 = 0.5098	784	0.638
303.15 K, x1 = 0.5987	785.4	0.601
303.15 K, x1 = 0.6986	786.9	0.571
303.15 K, x1 = 0.8138	788.7	0.547
303.15 K, x1 = 0.9278	790.5	0.534
303.15 K, x1 = 1	791.6	0.523
308.15 K, x1 = 0.067	773.2	1.19
308.15 K, x1 = 0.1344	774.1	0.985
308.15 K, x1 = 0.2044	775	0.849
308.15 K, x1 = 0.3035	776.4	0.736
308.15 K, x1 = 0.3848	777.5	0.669
308.15 K, x1 = 0.5098	779.3	0.594
308.15 K, x1 = 0.5987	780.7	0.562
308.15 K, x1 = 0.6986	782.2	0.536
308.15 K, x1 = 0.8138	784	0.515
308.15 K, x1 = 0.9278	785.7	0.503
308.15 K, x1 = 1	786.9	0.493
313.15 K, x1 = 0.067	768.7	1.059
313.15 K, x1 = 0.1344	769.5	0.884
313.15 K, x1 = 0.2044	770.4	0.769
313.15 K, x1 = 0.3035	771.8	0.675
313.15 K, x1 = 0.3848	772.9	0.619
313.15 K, x1 = 0.5098	774.7	0.555
313.15 K, x1 = 0.5987	776	0.528
313.15 K, x1 = 0.6986	777.5	0.505
313.15 K, x1 = 0.8138	779.3	0.486
313.15 K, x1 = 0.9278	781.1	0.473
313.15 K, x1 = 1	782.3	0.463
318.15 K, x1 = 0.067	764.1	0.949
318.15 K, x1 = 0.1344	764.8	0.799
318.15 K, x1 = 0.2044	765.7	0.695
318.15 K, x1 = 0.3035	767	0.615
318.15 K, x1 = 0.3848	768.1	0.565
318.15 K, x1 = 0.5098	769.9	0.516
318.15 K, x1 = 0.5987	771.2	0.495
318.15 K, x1 = 0.6986	772.7	0.475
318.15 K, x1 = 0.8138	774.6	0.459
318.15 K, x1 = 0.9278	776.4	0.447
318.15 K, x1 = 1	777.6	0.437
323.15 K, x1 = 0.067	759.4	0.845
323.15 K, x1 = 0.1344	760.2	0.718
323.15 K, x1 = 0.2044	761	0.629
323.15 K, x1 = 0.3035	762.3	0.56
323.15 K, x1 = 0.3848	763.4	0.52
323.15 K, x1 = 0.5098	765.2	0.48
323.15 K, x1 = 0.5987	766.5	0.462
323.15 K, x1 = 0.6986	768.1	0.448
323.15 K, x1 = 0.8138	769.9	0.435
323.15 K, x1 = 0.9278	771.8	0.422
323.15 K, x1 = 1	773	0.41
